Experimental data published in US7091238B1, “Thienylhydrazon with digitalis-like properties (positive inotropic effects)” (University of Maryland, priority 1999, dated 2006).
“Also recorded” adds a separate entry of the source.

How the values were obtained:
[1] = test system: single muscle fiber; assay: Fatigue development in single amphibian muscle fibers under repetitive tetanic stimulation; format: cell-based, frog, rana pipiens
Method: FIG. 17. Time course of fatigue development. Fatigue was produced by 60 Hz, 0.8 sec tetanic stimulations repeated every 4.75 sec with a twitch elicited 2.2 sec after each tetanic stimulation. a) single tetanus. b) repeated tetanic stimulations. Notice the time calibration. A) In 50 μM of DMSO only B) Same as in A, but the fiber was bathed with 50 μM of compound LASSBio-294.
FIG. 28. Time (in min) for tetanic force to decrease (fatigue) to 50% of the original tetanic force during repetitive stimulations as in FIG. 17. Left column in 50 μM of DMSO only (˜6 in). Right column in 50 μM of LASSBio-294 (˜9 min).
FIG. 29. Time of recovery to 80% of the pre-fatigue tetanic force. Left column in 50 μM of DMSO only (˜90 min). Right column in 50 μM of LASSBio-294 (˜10 min).
c. […] A is 50 μM DMSO in Ringer's solution, B is 50 μM LASSBio-294. The time to fatigue in LASSBio-294-treated is approximately 50% longer than control.
The tests in amphibians were performed in isolated single muscle cells freshly isolated from either the semitendinous or the tibialis anterior muscles of the frog, rana pipiens. The isolated muscle cells were left resting for at least half an hour in Ringer's solution. The fibers were then stimulated with single, low-voltage, electric shocks. If fibers gave brisk twitches and had no signs of membrane damage, they were used. Otherwise, they were discarded. Healthy fibers were transferred to the experimental chamber, which consisted of a 0.3 ml narrow channel where the solutions could be changed several times within five seconds. One tendon of the fiber was gripped with a small clamp and the other tendon was attached to a hook of an Ekhart;s type force transducer. The stimulating electrode consisted of platinum wires placed to each side of the fiber. The muscle fibers were stretched 1.3 times their slack length to reach approximately an average sarcomere length of 1.6 μm.
The fibers were stimulated with single electric pulses of 0.5 msec duration and variable voltage. The voltage was increased until the threshold for contraction was reached. […]

[2] = test system: particulate PDE 4; assay: Direct inhibition of particulate PDE 4; format: biochemical; conditions: rat heart
[3] = test system: particulate PDE 3; assay: Direct inhibition of particulate PDE 3; format: biochemical; conditions: rabbit heart
[4] = test system: dogs; assay: LD 50 in dogs; format: in vivo; conditions: dogs
Method: (§1) LASSBio-294 has very low toxic effects. This was tested in whole mouse, rat, and dog models (Greaves, P. (1998) Exp. Toxicol. Pathol. 50, 283). These models are commonly used to predict toxicity in humans (Chou, W. L., Robbie G., Chung, S. M., Wu, T. C., and Ma, C. (1998) Pharm. Res. 15, 1474). […] These tests predict LASSBio-294 can be dosed in humans to achieve therapeutic plasma levels without significant risk of toxicity.

[5] = LD 50 in dogs; format: in vivo; conditions: dog, in vivo
Method: as §1

[6] = Blood biochemistry analysis in treated mice; format: in vivo
Method: b. Rats were weighed before and after treatment with LASSBio 204. […] Six rats were examined in each group, measurements were made after 1–15 days of treatment. […] Mice were injected with LASSBio-294 and their blood examined for cell changes. Experimental groups received 2 or 10 mg/kg of drug. […] Table 4 lists blood chemistry analysis of mice treated with LASSBio-294. Experimental groups received 2 or 10 mg/kg of drug. Controls were saline and solvent. […] The low values of glucose found could be due to an artifact of the technique, glucose being a byproduct of hemolysis. […] General Method

[7] = test system: neuromuscular transmission; assay: Contractions of gastrocnemius muscle induced by stimulation of the sciatic nerve; format: in vivo; conditions: rat gastrocnemius, vs DMSO vehicle
Method: FIG. 30. Records of contractions induced by stimulation of the sciatic nerve of equilibrated rat gastrocnemius muscles and of arterial pressure. In control, contractions were induced by intravenous injection of DMSO ([…]). LASSBio-294 was administered in DMSO. Calibration: Horizontal, 1 cm=24 s; Vertical 2 g=100 mm Hg.
FIG. 31. Records of contractions of rat gastrocnemius muscles induced by stimulation of the sciatic nerve and of arterial pressure. For control, contraction was induced by intravenous injection of […] (0.04 ml). LASSBio-294 was administered in DMSO.

[8] = test system: isolated hearts; assay: Isometric (twitch) tension in isolated hearts under pre-load; parameters: species or system rat; conditions: 50 μM in bathing solution; pre-load of 1 g; vs control and wash
Method: FIG. 5. Recordings of twitch tension in isolated hearts. Control (top), LASSBio-294 (middle) and wash (bottom).
a Recordings of electrocardiogram (ECG) of isolated rat heart are shown in FIG. 4 which compare control, LASSBio-294 treatment, 10 uM, 50 μM and 100 μM and post-treatment wash. […] FIG. 5 illustrates a test of change in isometric tension induced by LASSBio-294 in isolated hearts under preload. Concentration of LASSBio-294 in the bathing solution is 50 μM, which is half of the highest concentration tested in the ECG tests described in FIG. 4. Hearts were treated under a pre-load of 1 g; control was compared to LASSBio-294 and wash. […] This effect was lost in the wash out period. The pre-load tension test is considered to be an animal model of congestive heart disease. Comparing the effect of drugs with this test is predictive of therapeutic effect of treatment in human congestive heart disease. General Method
Hearts were quickly removed and placed in an aorta retrograde perfusion system for measurement of ECG. Increasing concentrations of LASSBio-294 were added to the bathing solution. The system equilibrated for 5 min. before measurement of isometric tension after each addition.

O=C(NN=Cc1cccs1)c1ccc2c(c1)OCO2 [LASSBio-294, 3,4-methylenedioxybenzoyl-2-thienylhydrazone]
time to fatigue, longer than control ([1]; 50 μM vs 50 μM DMSO, 60 Hz 0.8 sec tetanic stimulations): approximately 50%
time for tetanic force to decrease (fatigue) to 50% of the original tetanic force ([1]; 50 μM, repetitive stimulations): ~9 min
resistance to muscle fatigue ([1]; treated skeletal muscle fibers vs control fibers): increased resistance to muscle fatigue
direct inhibition of particulate PDE 4 [2]: did not inhibit directly
direct inhibition of particulate PDE 3 [3]: did not inhibit directly
LD 50 relative to the effective dose [4]: > 1000 fold
LD50 [5]: 1500 mg/kg
hemoglobin, erythrocytes and blood biochemistry ([6]; male and female mice, long-term treatment): values similar to control
blood chemistry values ([6]; mice, 2 or 10 mg/kg, controls saline and solvent): no significant change in blood chemistry values
effect on neuromuscular junction / transmission [7]: no effect on the neuromuscular junction; also recorded: no effect on neuromuscular transmission; also recorded: unaffected
isometric tension [8]: increase in isometric tension compared to control
